# According to US20100215588A1, “THERAPEUTIC DELIVERY OF INHIBITORY NUCLEIC ACID MOLECULES TO THE RESPIRATORY SYSTEM” (priority 2007, published 2010):
# Key:
# [1] = tested on: A549 lung tumors; experiment: A549 lung tumor growth after inhaled Nrf2 siRNA alone or with carboplatin; format: in vivo, SCID-Beige mice; conditions: lung tumor weights; siRNA 100 μg/dose by nebulizer three times a week for 4 weeks; carboplatin 30 mg/kg i.p. twice/week
# Description: (§1) Tumor Xenografts: A549 cells (5×10^6) were injected into the hind leg of male athymic nude mice and the tumor was measured weekly. The tumor volumes were measured using the following formula: [length (mm)×width (mm)×width (mm)×0.52]. In the lung metastasis experiments, 2×10^6 A549-C8-luc cells were injected into SCID-Beige mice (Charles River, Mass.) intravenously.
# (§2) For in vivo experiments, all siRNA compounds were chemically synthesized being stabilized by alternating 2-O′-Me modifications on both strands. The sequence of siRNA targeting human Nrf2 used for in vivo experiments is 5′-UCCCGUUUGUAGAUGACAA-3′ (sense) and 5′-UUGUCAUCUACAAACGGGA-3′ (antisense). The sequence of control siRNA targeting GFP is 5′-[…]-3′ (sense) and 5′-[…]-3′ (antisense).
# For aerosol delivery of Nrf2 or GFP siRNA into lung tumors, 100 μg of siRNA duplex diluted in PBS was aerosolized using a nebulizer. Mice were given three dose of siRNA (100 μg/dose) every week, for 4 weeks, using a nebulizer. Intraperitoneal injections of carboplatin were given at a dose of 30 mg/kg body weight twice/week.
# (§3) In Vivo Imaging: Animals inoculated with A549-C8-luc cells, which express a luciferase reporter gene, were anesthetized and injected intraperitoneally with 250 ul of luminescent substrate (15 mg/ml stock) D-Luciferin Firefly (Xenogen Cat# XR-1001). The animals were then imaged and analyzed by using the Xenogen IVIS Optical Imaging Device in the Johns Hopkins Oncology Center.
# Statistical Analysis-Statistical comparisons were performed by Student's t-tests. A value of p<0.05 was considered statistically significant. Tumor weights and changes in tumor volume were summarized using descriptive statistics. Differences in tumor measures between treatment groups were examined using linear regression models with generalized estimating equations (GEE). The distributions of both tumor measurements were skewed, so log transformations were used.
# [2] = tested on: Nrf2; experiment: ARE-Luc Nrf2-dependent reporter activity in orthotopic lung tumors, in vivo imaging; set-up: species or system SCID-Beige mice; conditions: siRNA by nebulizer; mice with A549-C8-luc lung tumors; FIG. 5
# Description: as §1, §2
# For aerosol delivery of Nrf2 or GFP siRNA into lung tumors, 100 μg of siRNA duplex diluted in PBS was aerosolized using a nebulizer. Mice were given three dose of siRNA (100 μg/dose) every week, for 4 weeks, using a nebulizer. […]
# as §3
# [3] = tested on: RTP801; experiment: Short-term (7 day) cigarette smoking model, intralung delivery of RTP801 siRNA; format: in vivo, mouse (C57BL6)
# Description: CS-induced inflammation was induced by 7 day smoking in 2 groups of C57BL6 mice, 10 mice per group. Group 1: CS+delivery of control siRNA (REDD8) siRNA; Group 2: CS+RTP801 siRNA (REDD14). Control groups of mice were instilled with either type of siRNA but kept in room air conditions. The animals were evaluated as in the above experiment with the Knock-Out mice.
# Exposure was carried out (7 h/day, 7 days/week) by burning 2R4F reference cigarettes (2.45 mg nicotine per cigarette; purchased from the Tobacco Research Institute, University of Kentucky, Lexington, Ky., USA) using a smoking machine (Model TE-10, Teague Enterprises, Davis, Calif., USA). Each smoldering cigarette was puffed for 2 s, once every minute for a total of eight puffs, at a flow rate of 1.05 L/min, to provide a standard puff of 35 cm^3. The smoke machine was adjusted to produce a mixture of sidestream smoke (89%) and mainstream smoke (11%) by burning five cigarettes at one time. Chamber atmosphere was monitored for total suspended particulates and carbon monoxide, with concentrations of 90 mg/m3 and 350 ppm, respectively.
# Following exposure to CS or instillation of RTP801 expressing plasmid, the mice were anesthetized with sodium pentobarbital. […] The total number of cells in the lavage fluid was determined, and 2×10^4 cells were cytocentrifuged (Shandon Southern Products, Pittsburgh, Pa., USA) onto glass slides and stained with Wright-Giemsa stain. […]
# Immunohistochemical staining of active caspase-3 assay was performed using anti-active caspase-3 antibody and the active caspase-3-positive cells were counted with a macro, using Image Pro Plus program. […]
# The activity of caspase-3 activity was measured in lung tissue extracts using a fluorometric assay according to the manufacturer's instructions. […] After removal of nuclei and cellular debris, the supernatant (300 μg protein) was then incubated with the pro-fluorescent substrate at room temperature for 1 h and the fluorescence intensity was measured utilizing a Typhoon phosphoimager (Amersham Biosciences, Inc., Piscataway, N.J., USA). […]
# [4] = Qualitative distribution of REDD14Cy3.5 siRNA in lung and kidney (fluorescence analysis); format: in vivo, cynomolgus monkeys
# Description: On Day 15 of the study, two of the available animals (101 and 102) were administered a target dose of 35 mg/kg of a mixture of I5NP and REDD14Cy3.5 (fluorescence-labelled) siRNA via an oronasal mask as a nebulized aerosol generated by the Aeroneb device. A 2.0 L/min dilution airflow was used. The total dose of siRNA administered was calculated, based on the bodyweights and measured respiratory minute volumes of the animals, and on the achieved output of the Aeroneb device using the formulation concentration of 40 mg/mL of siRNA. The administered dose was adjusted by changing the exposure times for the animals
# At the time of necropsy following Treatment 2, the lungs, bronchi and trachea of animal 102 were removed from the animal. The lungs were perfused with 4% paraformaldehyde, introduced using a syringe, via the trachea and/or bronchus and stored in this fixative at ambient temperature for a period of approximately 21 hours. Following this, as much as possible of the original fixative fluid was withdrawn by syringe via the trachea/bronchus and replaced with 0.2% paraformaldehyde. The fixed lungs were analyzed for fluorescence distribution.
# At the time of necropsy following Treatment 2, the right kidney of animal 102 was removed from the animal. The kidney was dissected into quarters by making one longitudinal and one transverse cut, each to pass through the hilus, and then immersed in 4% paraformaldehyde and refrigerated for approximately 21 hours. Following this, the fixing solution was changed to 0.2% paraformaldehyde and the kidney was analyzed for fluorescence distribution.
# Following Treatment 2, lung and kidney samples from animal 102 were analyzed for distribution of fluorescence (from REDD14Cy3.5 siRNA). The results were considered to be qualitative.
# [5] = Treatment 2, animal 102, approximately 30 minutes post-end of dosing, qualitative
compound,measurement,setting,value
"N.N.O=C([O-])C1(C(=O)[O-])CCC1.[Pt+2] [Vehicle siRNA + carboplatin, carboplatin]",Mean (SD) tumor weight,[1],495 (49.5) mg
"GFP siRNA: control siRNA targeting GFP; sense 5′-GGCUACGUCCAGGAGCGCACC-3′, antisense 5′-GGUGCGCUCCUGGACGUAGCC-3′ (alternating 2'-O-methyl on both strands, starting position not given here)",Mean (SD) tumor weight,[1],710 (167.93) mg
"Nrf2 siRNA: siRNA targeting human Nrf2, alternating 2-O′-Me; sense 5′-UCCCGUUUGUAGAUGACAA-3′, antisense 5′-UUGUCAUCUACAAACGGGA-3′ (alternating 2'-O-methyl on both strands, starting position not given here)",Nrf2 reporter activity in vivo,[2],inhibited Nrf2 reporter activity in vivo
same,Mean (SD) tumor weight,[1],802 (172.25) mg
"REDD14: exemplary siRNA in aqueous solution directed against gene RTP801; sense GUGCCAACCUGAUGCAGCU, antisense AGCUGCAUCAGGUUGGCAC (chemistry not fully specified)",RTP801 expression in the lungs,"[3]; 50 μg siRNA instilled intranasally, FIG. 3b",reduction of RTP801 expression in the lungs
same,"cigarette smoking induced apoptosis of lung septal cells (activated caspase staining, caspase 3 immunoblot)","[3]; 1 week of cigarette smoking, FIG. 3c",partially protected from cigarette smoking induced apoptosis of lung septal cells
same,cigarette smoking induced inflammation (number of inflammatory bronchoalveolar lavage cells),"[3]; 1 week of cigarette smoking, versus control siRNA REDD8, FIG. 3a",partially protected from cigarette smoking induced inflammation
"REDD14Cy3.5: fluorescent-labelled (Cy3.5) REDD14, RTP801 inhibiting siRNA; sense GUGCCAACCUGAUGCAGCU, antisense AGCUGCAUCAGGUUGGCAC (Cy3.5 fluorescent label, position and strand not given here)",fluorescent label in lungs,[4]; [5],detected in all sections taken from all lobes of the lungs
same,fluorescent label in right kidney,[4]; [5],little label detected in the right kidney
same,"distribution in lung, I5NP (hybridization) and REDD14Cy3.5 (fluorescence) compared",[4]; after oronasal inhalation,little difference in the distribution of the two test articles in lung
